In patent US9273057B2 (Bristol-Myers Squibb Company, priority 2012, dated 2016):

Biological target: CK2A1 (CK2α/β) (Homo sapiens, UniProt P68400)
Assay: CK2 kinase assay, CK2A1 (CK2α/β)
Format: biochemical
Conditions: Table A; read-out: CK2A1 (CK2α/β) (IC50)

Chain of CK2A1 (CK2α/β) (P68400 whole entry, species assumed): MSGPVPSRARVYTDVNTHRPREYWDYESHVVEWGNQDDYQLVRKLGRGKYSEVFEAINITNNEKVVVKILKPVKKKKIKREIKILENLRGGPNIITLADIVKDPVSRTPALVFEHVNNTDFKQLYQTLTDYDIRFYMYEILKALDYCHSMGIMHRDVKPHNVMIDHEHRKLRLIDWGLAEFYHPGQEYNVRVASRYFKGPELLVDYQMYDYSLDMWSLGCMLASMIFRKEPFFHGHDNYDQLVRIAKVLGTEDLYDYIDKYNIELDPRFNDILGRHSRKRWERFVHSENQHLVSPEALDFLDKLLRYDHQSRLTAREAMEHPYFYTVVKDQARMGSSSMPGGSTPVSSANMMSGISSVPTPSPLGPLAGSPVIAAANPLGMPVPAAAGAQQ
Chain of CK2A1 (CK2α/β) (P67870 whole entry partner, species assumed): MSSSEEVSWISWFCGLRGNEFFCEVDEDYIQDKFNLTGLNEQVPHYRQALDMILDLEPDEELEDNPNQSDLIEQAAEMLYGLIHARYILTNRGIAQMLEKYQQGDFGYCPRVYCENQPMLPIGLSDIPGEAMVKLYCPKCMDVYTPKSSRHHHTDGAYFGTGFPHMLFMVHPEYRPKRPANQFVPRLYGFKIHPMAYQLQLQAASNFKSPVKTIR

Structure (SMILES) | IC50
CCNc1nc(Nc2ccc3c(c2)c(C#N)cn3C2CCN(C[C@@H](O)CN3CCOCC3)CC2)nn2c(C#N)cnc12 [Example 830, (R)-2-((3-cyano-1-(1-(2-hydroxy-3-morpholinopropyl)piperidin-4-yl)-1H-indol-5-yl)amino)-4-(ethylamino)imidazo[2,1-f][1,2,4]triazine-7-carbonitrile] | 0.35 nM
COC(=O)N[C@@H]1CCN(c2cc(C(F)F)cc(Nc3nc(NC4CC4)c4ncc(C#N)n4n3)c2Cl)C[C@H]1O [Example 243, methyl (3R,4R)-1-(2-chloro-3-(7-cyano-4-(cyclopropylamino)imidazo[1,2-f][1,2,4]triazin-2-ylamino)-5-(difluoromethyl)phenyl)-3-hydroxypiperidin-4-ylcarbamate] | 2.08 nM
N#Cc1cc(Nc2nc(NC3CC3)c3ncc(C#N)n3n2)c(Cl)c(C2CCN(C(=O)CC(F)(F)F)CC2)c1 [Example 237, 2-((2-chloro-5-cyano-3-(1-(3,3,3-trifIuoropropanoyl)-4-piperidinyl)phenyl)amino)-4-(cyclopropylamino)imidazo[2,1-f][1,2,4]triazine-7-carbonitrile] | 0.41 nM
CN(CCN)c1cc(C#N)cc(Nc2nc(NC3CC3)c3ncc(C#N)n3n2)c1Cl [Example 50] | 0.63 nM
CCNC(=O)N[C@H]1CN(c2cc(C#N)cc(Nc3nc(NC4CC4)c4ncc(C#N)n4n3)c2Cl)C[C@H]1OC (racemic) [Example 32, (+/−) 1-((3S,4R)-1-(2-chloro-5-cyano-3-((7-cyano-4-(cyclopropylamino)imidazo [2,1-f][1,2,4]triazin-2-yl)amino)phenyl)-4-methoxy-3-pyrrolidinyl)-3-ethylurea] | 0.8 nM
CCNc1nc(Nc2cc(C#N)cc(N3CC[C@@H](NC(=O)OC)[C@H](OC(=O)C(C)OP(=O)(O)O)C3)c2Cl)nn2c(C#N)cnc12 (mixture of isomers) [Example 339, (+/−)-(3R,4R)-1-(2-chloro-5-cyano-3-((7-cyano-4-(ethylamino)imidazo[2,1-f][1,2,4]triazin-2-yl)amino)phenyl)-4-((methoxycarbonyl)amino)piperidin-3-yl 2-(phosphonooxy)propanoate] | 0.47 nM
N#Cc1cc(Nc2nc(NC3CC3)c3ncc(C#N)n3n2)c(Cl)c(N2CCN(C3CN(C(=O)[C@@H]4C[C@H](F)CN4)C3)CC2)c1 [Example 503, 2-{[2-chloro-5-cyano-3-(4-{1-[(2S,4S)-4-fluoropyrrolidine-2-carbonyl]azetidin-3-yl}piperazin-1-yl)phenyl]amino}-4-(cyclopropylamino)imidazo[2,1-f][1,2,4]triazine-7-carbonitrile] | 3.67 nM
N#Cc1cc(Nc2nc(NC3CC3)c3ncc(C#N)n3n2)c(Cl)c(N2CCN(C3CN(C(=O)C4CC4)C3)CC2)c1 [Example 485, 2-({2-chloro-5-cyano-3-[4-(1-cyclopropanecarbonyl-azetidin-3-yl)piperazin-1-yl]phenyl}amino)-4-(cyclopropylamino)imidazo[2,1-f][1,2,4]triazine-7-carbonitrile] | 0.77 nM
N#Cc1cnc2c(NC3CC3)nc(Nc3cc(C(F)F)cc(N4CCC(C(CO)CO)CC4)c3Cl)nn12 [Example 277, 2-((2-chloro-5-(difluoromethyl)-3-(4-(2-hydroxy-1-(hydroxymethyl)ethyl)-1-piperidinyl)phenyl)amino)-4-(cyclopropylamino)imidazo[2,1-f][1,2,4]triazine-7-carbonitrile] | 2.56 nM
COC(=O)N[C@H]1CCN(c2cc(C#N)cc(Nc3nc(NC4CC4)c4ncc(C#N)n4n3)c2Cl)CC1N[C@@H](C)C(N)=O (stereo partly drawn) [Example 753, methyl N-[(4S)-3-{[(1S)-1-carbamoylethyl]amino}-1-(2-chloro-5-cyano-3-{[7-cyano-4-(cyclopropylamino)imidazo [2,1-f][1,2,4]triazin-2-yl]amino}phenyl)piperidin-4-yl]carbamate] | 2.46 nM
COC(=O)N1CCC(N2CCN(c3cc(C#N)cc(Nc4nc(NC5CC5)c5ncc(C#N)n5n4)c3Cl)CC2)C1 (stereo not drawn) [Example 591, methyl 3-[4-(2-chloro-5-cyano-3-{[7-cyano-4-(cyclopropylamino)imidazo [2,1-f][1,2,4]triazine-2-yl]amino}phenyl)piperazin-1-yl]pyrrolidine-1-carboxylate] | 3.82 nM
COC(=O)N(C)[C@@H]1CCN(c2cc(C#N)cc(Nc3nc(NC4CC4)c4ncc(C#N)n4n3)c2Cl)C[C@H]1O (racemic) [Example 187, (+/−)-methyl ((3R,4R)-1-(2-chloro-5-cyano-3-((7-cyano-4-(cyclopropylamino)imidazo[2,1-f][1,2,4]triazin-2-yl)amino)phenyl)-3-hydroxypiperidin-4-yl)(methyl)carbamate] | 0.94 nM
CN(C)Cc1cc(C#N)cc(Nc2nc(NC3CC3)c3ncc(C#N)n3n2)c1Cl [Example 667, 2-((2-chloro-5-cyano-3-((dimethylamino)methyl)phenyl)amino)-4-(cyclopropylamino)imidazo[2,1-f][1,2,4]triazine-7-carbonitrile] | 0.65 nM
CCNc1nc(Nc2cc(C#N)cc(N3CC[C@@H](NC(=O)OC)[C@H](N(C)[C@@H](C)C(N)=O)C3)c2Cl)nn2c(C#N)cnc12 [Example 768, methyl N-[(3R,4R)-3-{[(1S)-1-carbamoylethyl](methyl)amino}-1-(2-chloro-5-cyano-3-{[7-cyano-4-(ethylamino)imidazo[2,1-f] [1,2,4]triazin-2-yl]amino}phenyl)piperidin-4-yl] carbamate] | 4 nM
COC(=O)N[C@@H]1CCN(c2cc(C#N)cc(Nc3nc(NC4CC4)c4ncc(C#N)n4n3)c2Cl)C[C@H]1OC(=O)[C@H](C)N [Example 195, (3R,4R)-1-(2-chloro-5-cyano-3-((7-cyano-4-(cyclopropylamino)imidazo[2,1-f][1,2,4]triazin-2-yl)amino)phenyl)-4-((methoxycarbonyl)amino)-3-piperidinyl L-alaninate] | 0.5 nM
N#Cc1cc(Nc2nc(NC3CC3)c3ncc(C#N)n3n2)c(Cl)c(OC[C@@H]2COCCN2)c1 [Example 439, (S)-2-((2-chloro-5-cyano-3-(morpholin-3-ylmethoxy)phenyl)amino)-4-(cyclopropylamino)imidazo[2,1-f][1,2,4]triazine-7-carbonitrile] | 0.75 nM
N#Cc1cc(Nc2nc(NC3CC3)c3ncc(C#N)n3n2)c(Cl)cc1CCCO [Example 566, 2-((2-chloro-5-cyano-4-(3-hydroxypropyl)phenyl)amino)-4-(cyclopropylamino)imidazo[2,1-f][1,2,4]triazine-7-carbonitrile] | 0.1 nM
CCNc1nc(Nc2cc(C#N)cc(N3CC[C@@H](NC(=O)OCCOCCOCCOCCOCCOCCOC)[C@H](O)C3)c2Cl)nn2c(C#N)cnc12 [Example 376, 2,5,8,11,14,17-hexaoxanonadecan-19-yl((3R,4R)-1-(2-chloro-5-cyano-3-((7-cyano-4-(ethylamino)imidazo[2,1-f][1,2,4]triazin-2-yl)amino)phenyl)-3-hydroxypiperidin-4-yl)carbamate] | 0.83 nM

Now from value to molecule:

IC50 | Structure (SMILES)
0.36 nM | CN1CCN(C2CN(c3cc(C#N)cc(Nc4nc(NC5CC5)c5ncc(C#N)n5n4)c3Cl)C2)CC1=O [Example 156, 2-((2-chloro-5-cyano-3-(3-(4-methyl-3-oxo-1-piperazinyl)-1-azetidinyl)phenyl)amino)-4-(cyclopropylamino)imidazo [2,1-f][1,2,4]triazine-7-carbonitrile]
0.65 nM | COC(=O)N1CCN(C2CN(c3cc(C#N)cc(Nc4nc(NC5CC5)c5ncc(C#N)n5n4)c3Cl)C2)CC1 [Example 153, methyl 4-(1-(2-chloro-5-cyano-3-((7-cyano-4-(cyclopropylamino)imidazo [2,1-f][1,2,4]triazin-2-yl)amino)phenyl)-3-azetidinyl)-1-piperazinecarboxylate]
1.66 nM | N#Cc1cc(CN2CCN(CCO)CC2)c(Cl)c(Nc2nc(NC3CC3)c3ncc(C#N)n3n2)c1 [Example 465, 2-[(2-chloro-5-cyano-3-{[4-(2-hydroxyethyl)piperazin-1-yl]methyl}phenyl)amino]-4-(cyclopropylamino)imidazo[2,1-f][1,2,4]triazine-7-carbonitrile]
0.68 nM | N#Cc1cc(Nc2nc(NC3CC3)c3ncc(C#N)n3n2)c(Cl)c(-c2cnn(CCN3CCOCC3)c2)c1 [Example 718, 2-[(2-chloro-5-cyano-3-{1-[2-(morpholin-4-yl)ethyl]-1H-pyrazol-4-yl}phenyl)amino]-4-(cyclopropylamino)imidazo [2,1-f][1,2,4]triazine-7-carbonitrile]
3 nM | N#Cc1cc(Nc2nc(NC3CC3)c3ncc(C#N)n3n2)c(Cl)c(N2CCN(CCO)CC2=O)c1 [Example 634, 2-((2-chloro-5-cyano-3-(4-(2-hydroxyethyl)-2-oxopiperazin-1-yl)phenyl)amino)-4-(cyclopropylamino)imidazo[2,1-f][1,2,4]triazine-7-carbonitrile]
0.37 nM | N#Cc1cc(Nc2nc(NC3CC3)c3ncc(C#N)n3n2)c(Cl)c(N2CCN(C3COC3)C(CF)C2)c1 (racemic) [Example 312, (+/−)2-((2-chloro-5-cyano-3-(3-(fluoromethyl)-4-(oxetan-3-yl)piperazin-1-yl)phenyl)amino)-4-(cyclopropylamino)imidazo[2,1-f][1,2,4]triazine-7-carbonitrile]
0.52 nM | CN1CCN(c2cc(C#N)cc(Nc3nc(NC4CC4)c4ncc(C#N)n4n3)c2Cl)CC1CN1CC(F)C1 (stereo not drawn) [Example 708, 2-[(2-chloro-5-cyano-3-{3-[(3-fluoroazetidin-1-yl)methyl]-4-methylpiperazin-1-yl}phenyl)amino]-4-(cyclopropylamino)imidazo[2,1-f][1,2,4]triazine-7-carbonitrile]
2.46 nM | CN1CC2CN(c3cc(C#N)cc(Nc4nc(NC5CC5)c5ncc(C#N)n5n4)c3Cl)CC2C1 (stereo not drawn) [Example 461, 2-((2-chloro-5-cyano-3-(5-methylhexahydropyrrolo[3,4-c]pyrrol-2(1H)-yl)phenyl)amino)-4-(cyclopropylamino)imidazo[2,1-f][1,2,4]triazine-7-carbonitrile]
0.69 nM | COCC(=O)N1CCN(c2cc(C#N)cc(Nc3nc(NC4CC4)c4ncc(C#N)n4n3)c2Cl)CC1 [Example 77]
